Where a name gives a salt, the structure may show the parent alone.
How the values were obtained:
citrate plasma = assay: Activated Partial Thromboplastin Time (APTT); type: biochemical, human; conditions: difference to the control, 37° C.
Description: (§1) 9 parts of fresh blood from healthy donors was mixed with one part of sodium citrate solution (0.11 mol/l) and it was centrifuged for 10 minutes at room temperature at ca. 3000 r.p.m. The plasma was removed by pipette and can be stored at room temperature for ca. 8 hours.
Activated Partial Thromboplastin Time (APTT)
100 μl citrate plasma and 100 μl APTT reagent (Stago Diagnostics/Boehringer Mannheim GmbH; contains cephalin lyophilisate with a microcrystalline kieselguhr activator) are incubated for 3 minutes at 37° C. together with 10 μl dimethylsulfoxide (DMSO) or 10 μl of a solution of the active substance in DMSO in a ball coagulometer (KC10 from the Amelung Company). On addition of 100 μl 0.025 M calcium chloride solution a stopwatch is started and the time at which coagulation starts is determined. The APTT is ca. 28-35 seconds in the control measurements and is extended by the active substances. If no coagulation occurred in the measurements after 5 minutes the experiment was stopped (>300).
The measured APTT times in seconds are given in table 1 as a difference to the control. The concentrations of the active substances in the final volume were 100 μM (APTT 100), 10 μM (APTT 10), 1 μM (APTT 1), 0.1 μM (APTT 0.1).

human factor Xa = human factor Xa (Homo sapiens, UniProt P00742); assay: biochemical
Description: The kinetic measurements were carried out at pH=7.5 and 25° C. in 0.1 M phosphate buffer that contained 0.2 M sodium chloride and 0.5% polyethylene glycol 6000 (see below for preparation) in polystyrene semi-microcuvettes in a total volume of 1 ml. The reactions were started by addition of enzyme to pre-incubated solutions that contained either dimethyldisulfoxide (control) or solutions of the test substance in DMSO (inhibitor stock solutions: 10 mM in DMSO). The increase in absorbance at 405 nm due to the release of p-nitroaniline from the substrate was monitored over a time period of 12 minutes.
The inhibition constants Ki were determined as follows. […] KM and Vmax were determined from a measurement series (constant inhibitor concentration, variable substrate concentrations) by a non-linear fit to the equation [formula]
The Ki value is obtained by non-linear regression from the entire series of measurements with 16 sets of data (measurements at 4 different substrate concentrations and each with 4 different inhibitor concentrations) from the equation [formula] in which VMax denotes the maximum rate in the absence of an inhibitor, KM denotes the Michaelis constant and [S] the substrate concentration. […]

horse thrombin = assay: Thrombin Time; type: biochemical; conditions: 500 μM final; difference to the control; 37° C.; citrate plasma, ca. 3 U/ml horse thrombin
Description: as §1
200 μl citrate plasma is incubated for 2 minutes at 37° C. in a ball coagulometer (KC10 from the Amelung Company). 10 μl dimethylsulfoxide (DMSO) or a solution of the active substance in DMSO is added to 190 μl pre-heated thrombin reagent (Boehringer Mannheim GmbH; contains ca. 3 U/ml horse thrombin and 0.0125 M Ca^++). On addition of 200 μl of this solution to the plasma a stopwatch is started and the time at which coagulation starts is determined. The thrombin time is ca. 24 sec. in control measurements and is extended by the active substances. If no coagulation occurred in the measurements after 5 minutes the experiment was stopped (>300).
The measured thrombin times in seconds are given in table 1 as a difference to the control. The concentrations of the active substances in the final volume were 500 μM (TT 500).

human factor Xa, sequence (P00742 235-488 limits assumed): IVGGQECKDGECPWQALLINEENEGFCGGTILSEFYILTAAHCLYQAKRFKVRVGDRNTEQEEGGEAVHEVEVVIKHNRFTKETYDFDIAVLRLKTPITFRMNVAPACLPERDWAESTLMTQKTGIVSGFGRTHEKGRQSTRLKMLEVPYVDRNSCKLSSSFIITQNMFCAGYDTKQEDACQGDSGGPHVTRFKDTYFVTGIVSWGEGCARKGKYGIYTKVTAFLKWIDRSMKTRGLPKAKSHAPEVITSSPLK
human factor Xa, sequence (P00742 41-179 partner limits assumed): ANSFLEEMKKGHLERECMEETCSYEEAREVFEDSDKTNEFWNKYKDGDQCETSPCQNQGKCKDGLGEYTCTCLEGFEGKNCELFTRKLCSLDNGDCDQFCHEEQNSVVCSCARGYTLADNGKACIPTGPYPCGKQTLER

CCOP(=O)(OCC)C(Oc1ccc2ccc(C(=N)N)cc2c1)c1ccc(OC2CCN(C(C)=N)CC2)cc1 (stereo not drawn) [Example 1, (7-Carbamimidoyl-naphthalen-2-yloxy)-[{4-[1-(1-imino-ethyl)-piperidin-4-yloxy]-phenyl}-methyl)-phosphonic acid diethyl ester-dihydrochloride]
APTT 0.1 (citrate plasma; 0.1 μM final): 8 s
APTT 1 (citrate plasma; 1 μM final): 45 s
APTT 10 (citrate plasma; 10 μM final, >300 = no coagulation after 5 minutes): > 300 s
APTT 100 (citrate plasma; 100 μM final, >300 = no coagulation after 5 minutes): > 300 s
Ki (human factor Xa): 2 nM
TT 500 (horse thrombin): 49 s

Reference: patent US6037334A, “Phosphonates, process for preparing the same and medicaments” (Roche Diagnostics GmbH, priority 1996, dated 2000)
